In ChEMBL document CHEMBL3864148, “Synthesis of linear and angular aryl-morpholino-naphth-oxazines, their DNA-PK, PI3K, PDE3A and antiplatelet activity” (Bioorg Med Chem Lett, 2016):

What was measured:
[1] = biological target: cGMP-inhibited 3',5'-cyclic phosphodiesterase 3A (Homo sapiens) (UniProt Q14432); assay: Inhibition of PDE3A (unknown origin) at 10 uM relative to control
[2] = biological target: T1, Phosphatidylinositol 4,5-bisphosphate 3-kinase catalytic subunit delta isoform (Homo sapiens) (UniProt O00329); assay: Inhibition of p110delta (unknown origin) assessed as decrease in ATP consumption at 10 uM after 60 mins by Kinase-Glo assay relative to control
T1 sequence (whole entry): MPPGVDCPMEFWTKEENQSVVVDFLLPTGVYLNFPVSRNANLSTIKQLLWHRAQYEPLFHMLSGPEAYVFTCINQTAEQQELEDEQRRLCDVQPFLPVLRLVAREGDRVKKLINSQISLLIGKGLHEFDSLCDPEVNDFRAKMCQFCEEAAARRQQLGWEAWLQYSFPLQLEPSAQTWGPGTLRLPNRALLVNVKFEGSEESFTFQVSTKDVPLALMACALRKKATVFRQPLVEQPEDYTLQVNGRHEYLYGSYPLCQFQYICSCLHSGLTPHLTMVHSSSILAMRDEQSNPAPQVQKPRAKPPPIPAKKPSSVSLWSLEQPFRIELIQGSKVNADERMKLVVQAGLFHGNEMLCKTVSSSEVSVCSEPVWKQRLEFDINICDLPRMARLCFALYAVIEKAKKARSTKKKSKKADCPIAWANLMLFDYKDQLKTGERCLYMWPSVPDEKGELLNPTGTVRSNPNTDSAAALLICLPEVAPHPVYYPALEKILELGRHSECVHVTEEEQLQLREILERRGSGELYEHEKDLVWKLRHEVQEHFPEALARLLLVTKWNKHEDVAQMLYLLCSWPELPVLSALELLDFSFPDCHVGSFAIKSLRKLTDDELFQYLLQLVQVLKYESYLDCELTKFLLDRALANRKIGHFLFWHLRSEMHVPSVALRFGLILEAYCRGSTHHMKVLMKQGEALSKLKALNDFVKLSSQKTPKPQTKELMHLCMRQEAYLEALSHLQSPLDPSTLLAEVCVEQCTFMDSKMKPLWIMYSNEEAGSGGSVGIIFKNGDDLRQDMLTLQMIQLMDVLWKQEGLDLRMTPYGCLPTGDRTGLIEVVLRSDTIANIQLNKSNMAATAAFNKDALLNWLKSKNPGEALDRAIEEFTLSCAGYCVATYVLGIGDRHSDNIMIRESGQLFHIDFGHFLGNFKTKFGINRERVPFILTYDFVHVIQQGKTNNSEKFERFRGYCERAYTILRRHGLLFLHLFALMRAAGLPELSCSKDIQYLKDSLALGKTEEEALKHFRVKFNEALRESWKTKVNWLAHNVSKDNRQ

[3] = biological target: T2, Phosphatidylinositol 4,5-bisphosphate 3-kinase catalytic subunit beta isoform (Homo sapiens, UniProt P42338); assay: Inhibition of p110beta (unknown origin) assessed as decrease in ATP consumption at 10 uM after 60 mins by Kinase-Glo assay relative to control
Target sequence in this assay (P42338 whole entry, looked up, canonical isoform): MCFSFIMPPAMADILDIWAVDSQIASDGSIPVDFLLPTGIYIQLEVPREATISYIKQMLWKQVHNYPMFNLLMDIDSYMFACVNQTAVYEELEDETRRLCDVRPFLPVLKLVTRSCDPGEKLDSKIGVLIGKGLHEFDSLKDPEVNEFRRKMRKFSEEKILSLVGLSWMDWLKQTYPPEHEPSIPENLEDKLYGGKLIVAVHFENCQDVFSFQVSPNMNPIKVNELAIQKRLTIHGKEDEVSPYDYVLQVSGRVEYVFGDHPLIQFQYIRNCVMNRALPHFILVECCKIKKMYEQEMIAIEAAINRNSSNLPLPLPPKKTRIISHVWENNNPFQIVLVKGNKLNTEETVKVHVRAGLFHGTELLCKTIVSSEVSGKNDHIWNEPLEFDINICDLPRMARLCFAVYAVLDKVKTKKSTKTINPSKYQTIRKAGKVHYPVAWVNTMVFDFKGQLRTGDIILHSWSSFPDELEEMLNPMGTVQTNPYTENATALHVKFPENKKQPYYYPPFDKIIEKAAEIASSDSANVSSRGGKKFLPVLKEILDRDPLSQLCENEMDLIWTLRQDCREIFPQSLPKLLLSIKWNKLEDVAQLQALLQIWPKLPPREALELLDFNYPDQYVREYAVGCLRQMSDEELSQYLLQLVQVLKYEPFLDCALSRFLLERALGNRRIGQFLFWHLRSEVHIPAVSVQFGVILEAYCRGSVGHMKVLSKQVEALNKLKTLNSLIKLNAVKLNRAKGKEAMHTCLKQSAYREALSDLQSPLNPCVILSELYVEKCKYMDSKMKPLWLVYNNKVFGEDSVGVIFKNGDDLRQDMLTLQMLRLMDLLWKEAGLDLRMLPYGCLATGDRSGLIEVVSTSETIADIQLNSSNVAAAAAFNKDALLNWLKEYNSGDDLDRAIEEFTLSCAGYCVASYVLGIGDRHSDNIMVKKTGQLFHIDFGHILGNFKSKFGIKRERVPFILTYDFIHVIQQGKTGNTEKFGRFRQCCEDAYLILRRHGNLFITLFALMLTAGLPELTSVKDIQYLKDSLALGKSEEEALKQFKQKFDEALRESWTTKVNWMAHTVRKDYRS

[4] = biological target: T3, Phosphatidylinositol 4,5-bisphosphate 3-kinase catalytic subunit alpha isoform (Homo sapiens, UniProt P42336); assay: Inhibition of p110alpha (unknown origin) assessed as decrease in ATP consumption at 10 uM after 60 mins by Kinase-Glo assay relative to control
T3 sequence (P42336 whole entry, canonical isoform): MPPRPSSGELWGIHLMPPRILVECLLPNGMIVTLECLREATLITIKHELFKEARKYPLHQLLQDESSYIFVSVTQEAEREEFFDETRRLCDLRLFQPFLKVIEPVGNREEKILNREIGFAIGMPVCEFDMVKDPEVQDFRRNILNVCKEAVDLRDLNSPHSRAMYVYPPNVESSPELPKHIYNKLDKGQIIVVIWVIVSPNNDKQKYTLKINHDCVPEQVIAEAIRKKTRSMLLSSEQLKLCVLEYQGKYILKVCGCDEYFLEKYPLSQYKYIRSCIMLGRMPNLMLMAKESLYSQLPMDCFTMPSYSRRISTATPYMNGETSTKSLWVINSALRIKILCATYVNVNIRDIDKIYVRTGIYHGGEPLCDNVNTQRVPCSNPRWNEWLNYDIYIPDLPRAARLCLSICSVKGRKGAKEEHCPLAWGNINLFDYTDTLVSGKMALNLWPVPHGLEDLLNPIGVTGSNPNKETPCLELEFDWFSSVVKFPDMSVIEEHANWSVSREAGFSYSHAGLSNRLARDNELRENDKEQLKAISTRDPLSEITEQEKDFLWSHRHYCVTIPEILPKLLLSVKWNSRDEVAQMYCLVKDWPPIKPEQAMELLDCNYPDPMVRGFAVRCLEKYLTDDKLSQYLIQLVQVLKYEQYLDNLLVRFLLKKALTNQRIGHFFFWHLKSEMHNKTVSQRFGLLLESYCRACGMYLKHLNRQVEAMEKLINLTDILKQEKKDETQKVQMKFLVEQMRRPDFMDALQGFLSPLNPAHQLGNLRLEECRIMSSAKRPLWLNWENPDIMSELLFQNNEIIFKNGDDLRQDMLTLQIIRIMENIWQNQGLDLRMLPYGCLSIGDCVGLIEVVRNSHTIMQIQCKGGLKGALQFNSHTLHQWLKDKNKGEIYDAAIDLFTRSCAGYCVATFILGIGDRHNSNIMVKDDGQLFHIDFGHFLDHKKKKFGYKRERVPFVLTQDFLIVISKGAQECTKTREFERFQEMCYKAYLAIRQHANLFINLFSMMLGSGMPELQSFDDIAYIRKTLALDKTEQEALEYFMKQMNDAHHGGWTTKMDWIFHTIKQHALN

[5] = biological target: T4, Phosphatidylinositol 4,5-bisphosphate 3-kinase catalytic subunit gamma isoform (Homo sapiens, UniProt P48736); assay: Inhibition of p110gamma (unknown origin) assessed as decrease in ATP consumption at 10 uM after 60 mins by Kinase-Glo assay relative to control
Target sequence in this assay (P48736 whole entry, looked up, canonical isoform): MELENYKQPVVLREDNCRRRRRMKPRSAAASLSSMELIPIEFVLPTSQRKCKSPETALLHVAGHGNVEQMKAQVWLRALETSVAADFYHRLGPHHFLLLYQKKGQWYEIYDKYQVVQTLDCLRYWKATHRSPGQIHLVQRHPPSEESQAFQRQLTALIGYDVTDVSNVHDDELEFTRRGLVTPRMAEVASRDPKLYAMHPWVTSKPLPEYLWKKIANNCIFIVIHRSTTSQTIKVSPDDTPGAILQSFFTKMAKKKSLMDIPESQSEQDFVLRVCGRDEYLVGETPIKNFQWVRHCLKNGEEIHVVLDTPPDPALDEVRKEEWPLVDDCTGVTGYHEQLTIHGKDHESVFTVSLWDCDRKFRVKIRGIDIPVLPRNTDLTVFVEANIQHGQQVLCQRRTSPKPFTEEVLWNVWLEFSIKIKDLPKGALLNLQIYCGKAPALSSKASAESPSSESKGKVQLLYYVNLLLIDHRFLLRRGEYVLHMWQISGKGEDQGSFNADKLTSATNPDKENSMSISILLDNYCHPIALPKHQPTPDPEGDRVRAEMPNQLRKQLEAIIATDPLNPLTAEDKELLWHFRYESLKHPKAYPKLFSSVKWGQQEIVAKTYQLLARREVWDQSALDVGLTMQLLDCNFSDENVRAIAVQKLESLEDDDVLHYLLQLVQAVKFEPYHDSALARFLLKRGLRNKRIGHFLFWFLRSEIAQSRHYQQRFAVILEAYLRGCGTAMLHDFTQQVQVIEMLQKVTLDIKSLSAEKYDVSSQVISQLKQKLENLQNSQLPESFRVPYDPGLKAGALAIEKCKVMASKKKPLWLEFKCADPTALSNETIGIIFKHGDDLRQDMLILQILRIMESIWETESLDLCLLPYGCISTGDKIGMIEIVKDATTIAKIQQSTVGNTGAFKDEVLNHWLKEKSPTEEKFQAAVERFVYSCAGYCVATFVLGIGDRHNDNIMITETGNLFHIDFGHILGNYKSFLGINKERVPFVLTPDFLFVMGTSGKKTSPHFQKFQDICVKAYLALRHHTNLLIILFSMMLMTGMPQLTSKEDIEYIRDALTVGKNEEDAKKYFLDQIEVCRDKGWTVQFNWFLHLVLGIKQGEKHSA

[6] = biological target: DNA-PK/Ku70/Ku85 (Homo sapiens) (UniProt P78527+P12956+P13010); assay: Inhibition of human DNA-PK/Ku70/Ku85 at 10 uM using EPPLSQEAFADLWKK as substrate by HTRF assay relative to control
[7] = Antiplatelet activity in human platelet rich plasma assessed as inhibition of collagen-induced platelet aggregation preincubated for 2 mins followed by collagen addition by two-channel platelet aggregometer; type: functional
[8] = biological target: T2, Phosphatidylinositol 4,5-bisphosphate 3-kinase catalytic subunit beta isoform; assay: Inhibition of p110beta (unknown origin) assessed as decrease in ATP consumption after 60 mins by Kinase-Glo assay
Target sequence in this assay (P42338 whole entry, canonical isoform): as the sequence (P42338 whole entry, looked up, canonical isoform) above

[9] = biological target: T3, Phosphatidylinositol 4,5-bisphosphate 3-kinase catalytic subunit alpha isoform; assay: Inhibition of p110alpha (unknown origin) assessed as decrease in ATP consumption after 60 mins by Kinase-Glo assay
DNA-PK/Ku70/Ku85 = DNA-PK/Ku70/Ku85 (Homo sapiens, UniProt P12956+P13010+P78527); assay: Inhibition of human DNA-PK/Ku70/Ku85 using EPPLSQEAFADLWKK as substrate by HTRF assay relative to control
[10] = biological target: T5, Phosphatidylinositol 4,5-bisphosphate 3-kinase catalytic subunit delta isoform (Homo sapiens, UniProt O00329); assay: Inhibition of p110delta (unknown origin) assessed as decrease in ATP consumption after 60 mins by Kinase-Glo assay
T5 sequence (O00329 whole entry): T1 sequence (whole entry)

[11] = biological target: T4, Phosphatidylinositol 4,5-bisphosphate 3-kinase catalytic subunit gamma isoform; assay: Inhibition of p110gamma (unknown origin) assessed as decrease in ATP consumption after 60 mins by Kinase-Glo assay
Target sequence in this assay (P48736 whole entry, canonical isoform): as the sequence (P48736 whole entry, looked up, canonical isoform) above

Chain of cGMP-inhibited 3',5'-cyclic phosphodiesterase 3A (Homo sapiens) (Q14432 whole entry, canonical isoform): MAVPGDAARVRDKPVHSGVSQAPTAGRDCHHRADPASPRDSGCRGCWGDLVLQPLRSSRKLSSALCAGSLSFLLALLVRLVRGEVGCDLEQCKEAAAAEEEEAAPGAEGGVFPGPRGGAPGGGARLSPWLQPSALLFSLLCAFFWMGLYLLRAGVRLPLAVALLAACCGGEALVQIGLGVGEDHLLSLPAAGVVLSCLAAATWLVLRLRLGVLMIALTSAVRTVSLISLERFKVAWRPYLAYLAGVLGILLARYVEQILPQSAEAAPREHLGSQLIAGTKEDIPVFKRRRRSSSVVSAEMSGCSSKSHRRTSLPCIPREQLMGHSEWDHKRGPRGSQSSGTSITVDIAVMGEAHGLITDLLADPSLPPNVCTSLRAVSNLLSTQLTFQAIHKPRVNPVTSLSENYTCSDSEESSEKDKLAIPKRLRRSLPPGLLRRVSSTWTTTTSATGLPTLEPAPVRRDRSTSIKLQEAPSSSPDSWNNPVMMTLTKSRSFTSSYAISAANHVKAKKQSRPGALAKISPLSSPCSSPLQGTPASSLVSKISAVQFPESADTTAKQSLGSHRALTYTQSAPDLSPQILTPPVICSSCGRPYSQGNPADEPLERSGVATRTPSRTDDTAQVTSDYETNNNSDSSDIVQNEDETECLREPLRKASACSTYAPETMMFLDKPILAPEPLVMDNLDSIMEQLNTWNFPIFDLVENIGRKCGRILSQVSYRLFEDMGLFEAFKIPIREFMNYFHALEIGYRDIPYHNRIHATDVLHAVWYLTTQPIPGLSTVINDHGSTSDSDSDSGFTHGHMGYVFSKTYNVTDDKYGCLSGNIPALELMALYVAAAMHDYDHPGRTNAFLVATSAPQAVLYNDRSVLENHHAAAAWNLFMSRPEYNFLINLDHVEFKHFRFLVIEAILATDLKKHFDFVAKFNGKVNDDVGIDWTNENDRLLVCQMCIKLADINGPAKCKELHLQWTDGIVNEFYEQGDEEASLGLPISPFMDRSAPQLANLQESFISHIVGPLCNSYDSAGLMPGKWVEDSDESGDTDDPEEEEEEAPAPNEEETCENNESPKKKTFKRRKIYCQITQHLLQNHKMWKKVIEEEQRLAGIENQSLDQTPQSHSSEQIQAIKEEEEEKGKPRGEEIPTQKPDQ

In the case of `COc1ccc(-c2ccc3c(ccc4oc(N5CCOCC5)nc(=O)c43)c2)cc1`, the inhibition [1] is reported as 18%, the inhibition [2] is reported as 0% and the inhibition [3] is reported as 0%. The inhibition [4] was 0% and the inhibition [5] was -2%.

In the case of `Nc1cccc(-c2cc3c(=O)nc(N4CCOCC4)oc3c3ccccc23)c1`, the inhibition [1] is reported as -3%.

`O=c1nc(N2CCOCC2)oc2c1cc(-c1ccsc1)c1ccccc12` showed an inhibition [1] of 22% and an inhibition [6] of 22%.

For `NC(=O)c1ccc(-c2cc3c(=O)nc(N4CCOCC4)oc3c3ccccc23)cc1`, the inhibition [1] was 7% and the inhibition [6] was 10%.

Work on `O=c1nc(N2CCOCC2)oc2c1cc(-c1cccs1)c1ccccc12` yielded an inhibition [1] of 32% and an inhibition [6] of 34%.

Compound `O=c1nc(N2CCOCC2)oc2c1cc(-c1ccc(Cl)cc1)c1ccccc12` has an inhibition [1] of 1% and an inhibition [6] of 11%.

Compound `O=c1nc(N2CCOCC2)oc2c1cc(-c1cccc3c1sc1ccccc13)c1ccccc12` has an inhibition [1] of 30%, an IC50 [7] of 5 µM and an inhibition [6] of 0%. It also gave an inhibition [2] of 0%, an inhibition [3] of 11% and an inhibition [4] of 23%. It also gave an inhibition [5] of 12%.

With `O=c1nc(N2CCOCC2)oc2ccc3cc(-c4ccc(Cl)cc4)ccc3c12` the inhibition [1] was -4%, the inhibition [6] was 8.1% and the inhibition [2] was -1%. It also gave an inhibition [3] of -1%, an inhibition [4] of -5% and an inhibition [5] of 0%.

With `O=c1nc(N2CCOCC2)oc2c1cc(-c1cccc3c1oc1ccccc13)c1ccccc12` the inhibition [1] was 11%, the IC50 [7] was 2 µM and the inhibition [6] was 24%. It also gave an inhibition [2] of 0%, an inhibition [3] of 22% and an inhibition [4] of 9%. The inhibition [5] was 24%.

`O=c1nc(N2CCOCC2)oc2ccc3cc(-c4ccccc4)ccc3c12` gave an inhibition [1] of 13%, an inhibition [6] of 0% and an inhibition [2] of -1%. For the same compound, the inhibition [3] was -3%, the inhibition [4] was -2% and the inhibition [5] was 1%.

With `O=c1nc(N2CCOCC2)oc2c1cc(-c1ccccc1)c1ccccc12` the inhibition [1] was 15%, the IC50 [7] was 3 µM and the inhibition [6] was 22%. The inhibition [2] was 3%, the inhibition [3] was 10% and the inhibition [4] was 35%. It also gave an inhibition [5] of 34%.

For `COc1ccc(-c2c3ccccc3cc3c(=O)nc(N4CCOCC4)oc23)cc1`, the IC50 [8] was > 50 µM, the IC50 [9] was > 50 µM and the inhibition [1] was 6%. The IC50 [7] was > 80 µM, the IC50 (DNA-PK/Ku70/Ku85) was 11.9 µM and the IC50 [10] was 5.6 µM. For the same compound, the IC50 [11] was > 50 µM.

Work on `O=c1nc(N2CCOCC2)oc2ccc3cc(-c4cccc5c4sc4ccccc45)ccc3c12` yielded an inhibition [1] of 5% and an inhibition [6] of 0%.

In the case of `O=c1nc(N2CCOCC2)oc2c1cc(-c1cccc3ccccc13)c1ccccc12`, the inhibition [1] is reported as 26% and the inhibition [6] is reported as 10%.

For `O=c1nc(N2CCOCC2)oc2c1cc(/C=C/c1ccccc1)c1ccccc12`, the inhibition [1] was 18% and the inhibition [6] was 5.9%.

For `O=c1nc(N2CCOCC2)oc2c(-c3ccc(Cl)cc3)c3ccccc3cc12`, the inhibition [1] was 24%, the IC50 [7] was > 80 µM and the IC50 (DNA-PK/Ku70/Ku85) was > 100 µM. The inhibition [2] was 52%, the inhibition [3] was 0% and the inhibition [4] was 8%. The inhibition [5] was 3%.

For `O=c1nc(N2CCOCC2)oc2ccc3ccccc3c12`, the IC50 [7] was > 80 µM, the IC50 (DNA-PK/Ku70/Ku85) was 38.8 µM and the inhibition [2] was 8%. The inhibition [3] was 23%, the inhibition [4] was 4% and the inhibition [5] was 2%.

With `O=c1nc(N2CCOCC2)oc2c1ccc1ccccc12` the IC50 [7] was > 80 µM, the IC50 (DNA-PK/Ku70/Ku85) was 10 µM and the inhibition [2] was 12%. For the same compound, the inhibition [3] was 15%, the inhibition [4] was 22% and the inhibition [5] was 4%.

With `O=c1nc(N2CCOCC2)oc2cc3ccccc3cc12` the inhibition [2] was -10%.

`O=c1nc(N2CCOCC2)oc2c1cc(-c1ccc(CO)cc1)c1ccccc12` showed an inhibition [1] of 35%.

`COc1ccc(-c2cc3c(=O)nc(N4CCOCC4)oc3c3ccccc23)cc1` gave an inhibition [1] of 26%, an IC50 [7] of 14 µM and an inhibition [6] of 19%. For the same compound, the inhibition [2] was 9%, the inhibition [3] was 42% and the inhibition [4] was 20%. The inhibition [5] was 17%.

Work on `O=c1nc(N2CCOCC2)oc2ccc3cc(-c4cccc5c4oc4ccccc45)ccc3c12` yielded an inhibition [1] of 12% and an inhibition [6] of 0%.

With `O=c1nc(N2CCOCC2)oc2c(-c3ccccc3)c3ccccc3cc12` the IC50 [8] was > 50 µM, the IC50 [9] was 43.8 µM and the inhibition [1] was 32%. For the same compound, the IC50 [7] was > 80 µM, the IC50 (DNA-PK/Ku70/Ku85) was 78.1 µM and the IC50 [10] was 7.7 µM. The IC50 [11] was > 50 µM.
